Reference: article PMC7385124, “The molecular basis of thioalcohol production in human body odour” (Scientific Reports, 2020)

What was measured:
EcMalY = target: T1, EcMalY (Escherichia coli, UniProt P23256); assay: DTNB thiol release, A412, Michaelis-Menten; type: biochemical; settings: pH 7.8, 50 mM KPi, 200 mM NaCl, 37 °C, 0.4 mM DTNB
T1 construct: gene malY; full length; N-terminal MGGGFA and C-terminal ENLYFQG-His10; expressed in E. coli MC1061

SaPatB = target: T2, SaPatB (Streptococcus anginosus, UniProt A6BMJ3); assay: DTNB thiol release, A412, Michaelis-Menten; type: biochemical; settings: pH 7.8, 50 mM KPi, 200 mM NaCl, 37 °C, 0.4 mM DTNB
T2 construct: gene lcd; full length; expressed in E. coli MC1061
T2 sequence (A6BMJ3 1-388): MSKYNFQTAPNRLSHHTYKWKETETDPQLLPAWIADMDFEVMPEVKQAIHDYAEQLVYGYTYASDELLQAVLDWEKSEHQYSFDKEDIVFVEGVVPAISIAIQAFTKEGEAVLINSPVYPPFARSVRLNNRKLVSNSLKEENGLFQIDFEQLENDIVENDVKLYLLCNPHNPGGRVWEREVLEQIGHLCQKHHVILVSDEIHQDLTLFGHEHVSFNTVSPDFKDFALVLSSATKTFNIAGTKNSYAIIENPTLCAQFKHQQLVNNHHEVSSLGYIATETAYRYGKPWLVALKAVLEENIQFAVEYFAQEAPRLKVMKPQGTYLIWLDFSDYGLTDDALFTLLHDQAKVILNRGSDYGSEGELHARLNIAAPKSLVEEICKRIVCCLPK

BsPatB [1] = target: T3, BsPatB (Bacillus subtilis, UniProt Q08432); assay: DTNB thiol release, A412, Michaelis-Menten; type: biochemical; settings: pH 7.8, 50 mM KPi, 200 mM NaCl, 37 °C, 0.4 mM DTNB
T3 construct: gene patB; full length; N-terminal MGGGFA and C-terminal ENLYFQG-His10; expressed in E. coli MC1061; homodimer, PLP on Lys234
T3 sequence (Q08432 whole entry): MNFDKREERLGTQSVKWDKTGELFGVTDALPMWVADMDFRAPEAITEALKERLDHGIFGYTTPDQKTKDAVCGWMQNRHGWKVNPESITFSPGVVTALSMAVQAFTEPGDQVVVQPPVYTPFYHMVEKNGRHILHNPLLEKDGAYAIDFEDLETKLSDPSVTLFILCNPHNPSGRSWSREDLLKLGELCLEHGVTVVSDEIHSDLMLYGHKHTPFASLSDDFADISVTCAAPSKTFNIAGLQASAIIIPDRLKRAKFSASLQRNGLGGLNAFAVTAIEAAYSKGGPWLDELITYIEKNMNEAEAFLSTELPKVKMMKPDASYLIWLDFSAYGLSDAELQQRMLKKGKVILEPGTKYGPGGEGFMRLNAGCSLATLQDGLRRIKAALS

ShPatB [2] = target: T4, ShPatB (Staphylococcus hominis, UniProt Z9H0M2I6C5); assay: DTNB thiol release, A412, Michaelis-Menten; type: biochemical; settings: pH 7.8, 50 mM KPi, 200 mM NaCl, 37 °C, 0.4 mM DTNB
T4 construct: full length; pBADcLIC, expressed in E. coli MC1061; homodimer, PLP on Lys246
T4 sequence (Z9H0M2I6C5 7-404): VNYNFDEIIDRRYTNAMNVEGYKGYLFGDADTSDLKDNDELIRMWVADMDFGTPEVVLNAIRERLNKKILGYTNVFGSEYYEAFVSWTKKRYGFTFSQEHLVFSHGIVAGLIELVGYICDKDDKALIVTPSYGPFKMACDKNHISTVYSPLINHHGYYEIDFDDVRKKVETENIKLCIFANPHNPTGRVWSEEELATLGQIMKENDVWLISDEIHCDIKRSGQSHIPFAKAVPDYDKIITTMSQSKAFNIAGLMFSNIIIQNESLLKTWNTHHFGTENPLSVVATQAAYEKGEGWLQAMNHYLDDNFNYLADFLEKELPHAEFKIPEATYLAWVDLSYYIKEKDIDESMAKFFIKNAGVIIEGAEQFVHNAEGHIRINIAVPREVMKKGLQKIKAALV

ShPatB [3] = target: T4, ShPatB; assay: end point DTNB assay, A412; type: biochemical; settings: 2.5 μM enzyme, 2.5 mM Cys-3M3SH; covalent to PLP, reversed by excess PLP
BsPatB [4] = target: T3, BsPatB; assay: X-ray crystallography, […] Å; type: binding; settings: covalent internal aldimine at Lys234
ShPatB [5] = target: T4, ShPatB; assay: X-ray crystallography, […] Å; type: binding; settings: covalent internal aldimine at Lys246
CjAecD = target: T5, CjAecD (Corynebacterium jeikeium, UniProt Q4JWQ6); assay: DTNB thiol release, A412, Michaelis-Menten; type: biochemical; settings: pH 7.8, 50 mM KPi, 200 mM NaCl, 37 °C, 0.4 mM DTNB
T5 construct: gene aecD; full length; expressed in E. coli MC1061
T5 sequence (Q4JWQ6 1-416): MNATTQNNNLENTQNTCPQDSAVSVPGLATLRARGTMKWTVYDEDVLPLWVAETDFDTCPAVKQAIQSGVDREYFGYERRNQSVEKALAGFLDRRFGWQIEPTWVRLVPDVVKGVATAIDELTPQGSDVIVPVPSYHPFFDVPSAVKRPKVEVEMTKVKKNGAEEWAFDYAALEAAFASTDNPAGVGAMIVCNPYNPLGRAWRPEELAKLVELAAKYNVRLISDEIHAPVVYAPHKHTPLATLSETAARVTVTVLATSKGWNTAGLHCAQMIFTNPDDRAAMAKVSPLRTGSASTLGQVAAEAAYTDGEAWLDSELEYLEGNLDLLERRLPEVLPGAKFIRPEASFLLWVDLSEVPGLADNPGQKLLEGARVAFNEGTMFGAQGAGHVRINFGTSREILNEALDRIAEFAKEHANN

ShMetC = target: T6, ShMetC (Staphylococcus hominis, UniProt Z9HEU7RWP2); assay: DTNB thiol release, A412, Michaelis-Menten; type: biochemical; settings: pH 7.8, 50 mM KPi, 200 mM NaCl, 37 °C, 0.4 mM DTNB
T6 construct: full length; expressed in E. coli MC1061; species of 'Sh' not spelt out for MetC (S. haemolyticus possible)

SeMetC = target: T7, SeMetC (Staphylococcus epidermidis, UniProt Q5HRU7); assay: DTNB thiol release, A412, Michaelis-Menten; type: biochemical; settings: pH 7.8, 50 mM KPi, 200 mM NaCl, 37 °C, 0.4 mM DTNB
T7 construct: gene SERP0095; full length; expressed in E. coli MC1061; species of 'Se' not spelt out
T7 sequence (Q5HRU7 1-381): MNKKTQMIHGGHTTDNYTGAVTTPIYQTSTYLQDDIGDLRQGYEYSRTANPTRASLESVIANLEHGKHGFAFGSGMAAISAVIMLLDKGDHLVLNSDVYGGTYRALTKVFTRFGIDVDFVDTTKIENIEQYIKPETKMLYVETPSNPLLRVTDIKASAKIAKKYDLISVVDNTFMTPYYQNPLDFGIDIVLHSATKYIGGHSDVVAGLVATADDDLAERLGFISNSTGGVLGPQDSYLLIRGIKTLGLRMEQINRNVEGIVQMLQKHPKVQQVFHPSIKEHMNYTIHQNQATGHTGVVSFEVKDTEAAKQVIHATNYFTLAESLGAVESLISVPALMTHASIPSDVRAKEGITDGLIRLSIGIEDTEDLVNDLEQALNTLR

T1 sequence (P23256 whole entry): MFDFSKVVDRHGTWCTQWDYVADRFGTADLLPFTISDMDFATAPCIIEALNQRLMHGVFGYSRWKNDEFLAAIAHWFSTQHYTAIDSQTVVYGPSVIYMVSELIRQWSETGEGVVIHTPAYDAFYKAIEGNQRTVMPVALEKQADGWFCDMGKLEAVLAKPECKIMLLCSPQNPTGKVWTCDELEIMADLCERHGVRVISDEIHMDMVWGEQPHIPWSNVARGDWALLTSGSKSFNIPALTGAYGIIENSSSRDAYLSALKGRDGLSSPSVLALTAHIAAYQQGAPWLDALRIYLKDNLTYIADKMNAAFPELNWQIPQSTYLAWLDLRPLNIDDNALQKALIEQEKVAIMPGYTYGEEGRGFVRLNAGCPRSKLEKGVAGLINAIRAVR

SMILES	KM (EcMalY)	KM (SaPatB)	KM (BsPatB [1])	KM (ShPatB [2])	other results
CCCC(C)(CCO)SC[C@H](N)C(=O)O (some centres unmarked) [Cys-3M3SH]	E. coli MalY (EcMalY) had higher activities against cystathionine	Streptococcus anginosus (SaPatB) did not discriminate between the two ligands	B. subtilis (BsPatB) and Streptococcus anginosus (SaPatB) did not discriminate between the two ligands	ShPatB exhibits selectivity towards Cys-3M3SH	
CC(C)(CCO)SC[C@H](N)C(=O)O [Felinine]				We also measured enzyme activity against Felinine, a close structural analog of Cys-3M3SH	
N[C@H]1CONC1=O [LCS, L-cycloserine]					inhibition (end point) (ShPatB [3]): Cycloserine in vitro inhibition of ShPatB with Cys-3M3SH as the substrate
Cc1ncc(COP(=O)(O)O)c(C=O)c1O [PLP, pyridoxal phosphate]					X-ray crystallography, 2.3 Å (BsPatB [4]): each subunit containing a PLP moiety covalently bound to a conserved lysine residue; X-ray crystallography, 1.6 Å (ShPatB [5]): each subunit containing a PLP moiety covalently bound to a conserved lysine residue
N[C@@H](CCSC[C@H](N)C(=O)O)C(=O)O [cystathionine]	E. coli MalY (EcMalY) had higher activities against cystathionine	Streptococcus anginosus (SaPatB) did not discriminate between the two ligands	B. subtilis (BsPatB) and Streptococcus anginosus (SaPatB) did not discriminate between the two ligands		KM (CjAecD): CjAecD is selective for cystathionine over Cys-3M3SH; KM (ShMetC): higher activities against cystathionine, similar to the MetC enzymes included (ShMetC and SeMetC); KM (SeMetC): higher activities against cystathionine, similar to the MetC enzymes included (ShMetC and SeMetC)
